Results published in BindingDB's records for doi:10.1016/S0893-133X(01)00285-8 (Novartis Pharma, 2001).

Experiments:
[1] = biological target: Delta-type opioid receptor (Homo sapiens, UniProt P41143)
Substance-P receptor = Substance-P receptor (Homo sapiens, UniProt P25103)
[2] = biological target: Gastrin/cholecystokinin type B receptor (Homo sapiens, UniProt P32239)
Adenosine receptor A1 = Adenosine receptor A1 (Homo sapiens, UniProt P30542)
Adenosine receptor A2a = Adenosine receptor A2a (Homo sapiens, UniProt P29274)
Adenosine receptor A3 = Adenosine receptor A3 (Homo sapiens, UniProt P0DMS8)
[3] = biological target: 5-hydroxytryptamine receptor 6 (Homo sapiens, UniProt P50406)
[4] = biological target: Kappa-type opioid receptor (Homo sapiens, UniProt P41145)
Mu-type opioid receptor = Mu-type opioid receptor (Homo sapiens, UniProt P35372)
[5] = biological target: Sodium-dependent dopamine transporter (Homo sapiens, UniProt Q01959)
[6] = biological target: Sodium-dependent noradrenaline transporter (Homo sapiens, UniProt P23975)
[7] = biological target: 5-hydroxytryptamine receptor 7 (Homo sapiens, UniProt P34969)
[8] = biological target: Beta-2 adrenergic receptor (Homo sapiens, UniProt P07550)
[9] = biological target: 5-hydroxytryptamine receptor 3A (Homo sapiens, UniProt P46098)
Substance-K receptor = Substance-K receptor (Homo sapiens, UniProt P21452)
Neuromedin-K receptor = Neuromedin-K receptor (Homo sapiens, UniProt P29371)
[10] = biological target: Muscarinic acetylcholine receptor M3 (Homo sapiens, UniProt P20309)
[11] = biological target: Alpha-2B adrenergic receptor (Homo sapiens, UniProt P18089)
[12] = biological target: Alpha-2C adrenergic receptor (Homo sapiens, UniProt P18825)
[13] = biological target: Muscarinic acetylcholine receptor M2 (Homo sapiens, UniProt P08172)
[14] = biological target: Muscarinic acetylcholine receptor M1 (Homo sapiens, UniProt P11229)
[15] = biological target: Corticotropin-releasing factor receptor 2 (Homo sapiens) (UniProt Q13324)
[16] = biological target: Muscarinic acetylcholine receptor M4 (Homo sapiens, UniProt P08173)
[17] = biological target: Muscarinic acetylcholine receptor M5 (Homo sapiens, UniProt P08912)
Cannabinoid receptor 1 = Cannabinoid receptor 1 (Homo sapiens, UniProt P21554)
[18] = biological target: Beta-1 adrenergic receptor (Homo sapiens, UniProt P08588)
[19] = biological target: Alpha-2A adrenergic receptor (Homo sapiens, UniProt P08913)

Corticotropin-releasing factor receptor 2 (Homo sapiens), sequence (Q13324 whole entry, looked up): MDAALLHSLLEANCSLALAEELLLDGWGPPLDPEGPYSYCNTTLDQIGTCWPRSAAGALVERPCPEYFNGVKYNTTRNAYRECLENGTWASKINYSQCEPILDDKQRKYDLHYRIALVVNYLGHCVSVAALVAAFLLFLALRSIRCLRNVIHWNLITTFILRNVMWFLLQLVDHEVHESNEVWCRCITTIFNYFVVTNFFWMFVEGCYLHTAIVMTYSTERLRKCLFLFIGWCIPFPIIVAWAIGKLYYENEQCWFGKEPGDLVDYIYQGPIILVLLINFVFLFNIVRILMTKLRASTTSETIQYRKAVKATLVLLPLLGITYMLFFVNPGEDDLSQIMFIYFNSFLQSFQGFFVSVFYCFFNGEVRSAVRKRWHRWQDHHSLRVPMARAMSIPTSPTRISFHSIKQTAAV
Muscarinic acetylcholine receptor M2, sequence (P08172 whole entry): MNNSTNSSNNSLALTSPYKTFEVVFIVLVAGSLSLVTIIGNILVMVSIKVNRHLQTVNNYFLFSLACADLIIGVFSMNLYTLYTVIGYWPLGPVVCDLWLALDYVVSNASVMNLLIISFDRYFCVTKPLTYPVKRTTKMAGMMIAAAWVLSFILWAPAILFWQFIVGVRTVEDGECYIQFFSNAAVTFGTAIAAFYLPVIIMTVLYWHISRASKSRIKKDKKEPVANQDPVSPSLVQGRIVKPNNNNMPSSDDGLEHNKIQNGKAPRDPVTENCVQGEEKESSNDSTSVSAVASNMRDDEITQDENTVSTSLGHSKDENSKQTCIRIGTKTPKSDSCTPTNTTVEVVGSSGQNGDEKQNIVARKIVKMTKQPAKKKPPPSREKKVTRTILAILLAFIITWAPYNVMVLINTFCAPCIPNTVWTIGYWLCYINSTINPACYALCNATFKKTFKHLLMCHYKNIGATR
Adenosine receptor A1, sequence (P30542 whole entry): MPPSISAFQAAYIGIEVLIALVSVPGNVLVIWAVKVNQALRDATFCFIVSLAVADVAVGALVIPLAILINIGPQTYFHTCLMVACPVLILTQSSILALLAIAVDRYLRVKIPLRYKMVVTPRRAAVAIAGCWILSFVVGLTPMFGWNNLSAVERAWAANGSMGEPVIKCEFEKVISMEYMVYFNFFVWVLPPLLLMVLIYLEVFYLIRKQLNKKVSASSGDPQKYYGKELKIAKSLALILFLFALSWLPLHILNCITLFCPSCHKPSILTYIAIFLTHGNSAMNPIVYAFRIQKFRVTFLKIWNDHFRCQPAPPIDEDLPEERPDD
Beta-1 adrenergic receptor, sequence (P08588 whole entry): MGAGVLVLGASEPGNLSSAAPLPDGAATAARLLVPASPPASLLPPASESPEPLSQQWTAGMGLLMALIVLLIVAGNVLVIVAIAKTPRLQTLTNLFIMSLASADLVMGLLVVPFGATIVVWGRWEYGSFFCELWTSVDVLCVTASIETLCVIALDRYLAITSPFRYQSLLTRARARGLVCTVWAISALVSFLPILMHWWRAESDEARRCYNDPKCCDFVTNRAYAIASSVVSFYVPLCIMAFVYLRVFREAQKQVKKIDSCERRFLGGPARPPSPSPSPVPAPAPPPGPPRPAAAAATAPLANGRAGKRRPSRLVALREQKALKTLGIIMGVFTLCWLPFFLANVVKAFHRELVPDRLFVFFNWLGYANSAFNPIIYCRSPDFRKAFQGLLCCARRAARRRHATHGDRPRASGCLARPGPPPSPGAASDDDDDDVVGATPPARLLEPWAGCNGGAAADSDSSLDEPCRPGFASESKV
Adenosine receptor A3, sequence (P0DMS8 whole entry): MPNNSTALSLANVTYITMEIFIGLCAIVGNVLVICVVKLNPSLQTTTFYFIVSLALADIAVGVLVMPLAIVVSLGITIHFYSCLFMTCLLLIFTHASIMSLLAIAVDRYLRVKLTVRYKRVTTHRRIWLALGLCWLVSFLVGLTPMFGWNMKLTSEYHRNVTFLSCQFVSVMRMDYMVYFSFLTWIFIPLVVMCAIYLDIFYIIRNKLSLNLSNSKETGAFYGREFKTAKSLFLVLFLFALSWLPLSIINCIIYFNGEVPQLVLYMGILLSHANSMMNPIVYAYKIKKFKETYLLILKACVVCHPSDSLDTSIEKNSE
Beta-2 adrenergic receptor, sequence (P07550 whole entry): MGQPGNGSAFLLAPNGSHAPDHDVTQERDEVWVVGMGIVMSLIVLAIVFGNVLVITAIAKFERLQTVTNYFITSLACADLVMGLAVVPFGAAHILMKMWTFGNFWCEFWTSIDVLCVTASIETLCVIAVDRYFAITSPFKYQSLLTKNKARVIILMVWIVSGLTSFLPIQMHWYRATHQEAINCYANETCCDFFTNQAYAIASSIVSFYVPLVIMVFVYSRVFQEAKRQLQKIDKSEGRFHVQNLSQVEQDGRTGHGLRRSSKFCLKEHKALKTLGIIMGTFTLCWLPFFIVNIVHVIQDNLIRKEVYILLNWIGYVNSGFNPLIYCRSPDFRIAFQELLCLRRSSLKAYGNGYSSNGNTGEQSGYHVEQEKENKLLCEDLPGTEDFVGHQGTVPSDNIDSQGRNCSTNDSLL
Substance-K receptor, sequence (P21452 whole entry): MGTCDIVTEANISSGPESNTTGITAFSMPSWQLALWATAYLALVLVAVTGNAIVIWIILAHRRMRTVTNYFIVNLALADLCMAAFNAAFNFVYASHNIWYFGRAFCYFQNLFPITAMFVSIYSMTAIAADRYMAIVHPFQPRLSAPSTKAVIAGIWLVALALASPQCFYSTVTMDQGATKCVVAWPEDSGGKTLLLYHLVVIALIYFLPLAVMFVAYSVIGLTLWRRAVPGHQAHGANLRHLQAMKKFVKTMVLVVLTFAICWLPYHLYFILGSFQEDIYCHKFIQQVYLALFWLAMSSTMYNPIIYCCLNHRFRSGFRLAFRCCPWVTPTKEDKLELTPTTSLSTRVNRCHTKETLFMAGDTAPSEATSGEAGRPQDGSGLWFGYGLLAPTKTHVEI
Substance-P receptor, sequence (P25103 whole entry): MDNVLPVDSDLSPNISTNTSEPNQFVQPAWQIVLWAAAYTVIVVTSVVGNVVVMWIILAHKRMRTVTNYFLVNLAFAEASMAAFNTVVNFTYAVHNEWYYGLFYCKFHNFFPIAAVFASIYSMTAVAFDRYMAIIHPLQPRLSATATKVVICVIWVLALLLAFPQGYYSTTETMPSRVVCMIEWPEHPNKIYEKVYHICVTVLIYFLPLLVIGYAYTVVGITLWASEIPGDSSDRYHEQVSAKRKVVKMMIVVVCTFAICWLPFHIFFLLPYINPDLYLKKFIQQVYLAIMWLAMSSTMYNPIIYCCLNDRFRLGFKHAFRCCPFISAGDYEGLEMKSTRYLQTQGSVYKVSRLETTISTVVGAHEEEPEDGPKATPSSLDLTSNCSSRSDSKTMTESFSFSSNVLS
Muscarinic acetylcholine receptor M5, sequence (P08912 whole entry): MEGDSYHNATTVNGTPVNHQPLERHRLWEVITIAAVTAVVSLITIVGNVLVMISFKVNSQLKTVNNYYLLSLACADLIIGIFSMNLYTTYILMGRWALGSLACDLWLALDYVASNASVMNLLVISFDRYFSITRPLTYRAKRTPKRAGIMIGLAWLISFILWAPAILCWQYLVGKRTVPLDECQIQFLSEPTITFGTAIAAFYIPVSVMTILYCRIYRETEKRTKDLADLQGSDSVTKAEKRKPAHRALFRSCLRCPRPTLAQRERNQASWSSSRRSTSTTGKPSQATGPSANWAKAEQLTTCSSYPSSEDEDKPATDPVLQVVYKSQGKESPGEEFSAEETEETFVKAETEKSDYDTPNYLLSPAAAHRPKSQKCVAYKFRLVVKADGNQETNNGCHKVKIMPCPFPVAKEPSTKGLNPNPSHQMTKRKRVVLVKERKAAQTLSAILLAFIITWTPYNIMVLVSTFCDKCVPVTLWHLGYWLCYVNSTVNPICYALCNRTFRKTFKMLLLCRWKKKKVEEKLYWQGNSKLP
Alpha-2C adrenergic receptor, sequence (P18825 whole entry): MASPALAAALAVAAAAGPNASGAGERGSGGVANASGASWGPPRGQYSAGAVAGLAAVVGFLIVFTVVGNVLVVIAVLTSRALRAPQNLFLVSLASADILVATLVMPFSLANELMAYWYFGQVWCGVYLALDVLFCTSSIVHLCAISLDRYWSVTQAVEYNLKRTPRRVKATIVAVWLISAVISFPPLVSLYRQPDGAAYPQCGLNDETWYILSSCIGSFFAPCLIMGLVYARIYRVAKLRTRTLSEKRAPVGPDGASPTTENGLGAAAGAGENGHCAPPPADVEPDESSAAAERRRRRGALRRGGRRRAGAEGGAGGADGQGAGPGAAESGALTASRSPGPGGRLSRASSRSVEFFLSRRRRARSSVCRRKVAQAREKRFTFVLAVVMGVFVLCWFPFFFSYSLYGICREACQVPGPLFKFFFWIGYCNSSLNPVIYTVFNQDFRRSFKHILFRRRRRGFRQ
Adenosine receptor A2a, sequence (P29274 whole entry): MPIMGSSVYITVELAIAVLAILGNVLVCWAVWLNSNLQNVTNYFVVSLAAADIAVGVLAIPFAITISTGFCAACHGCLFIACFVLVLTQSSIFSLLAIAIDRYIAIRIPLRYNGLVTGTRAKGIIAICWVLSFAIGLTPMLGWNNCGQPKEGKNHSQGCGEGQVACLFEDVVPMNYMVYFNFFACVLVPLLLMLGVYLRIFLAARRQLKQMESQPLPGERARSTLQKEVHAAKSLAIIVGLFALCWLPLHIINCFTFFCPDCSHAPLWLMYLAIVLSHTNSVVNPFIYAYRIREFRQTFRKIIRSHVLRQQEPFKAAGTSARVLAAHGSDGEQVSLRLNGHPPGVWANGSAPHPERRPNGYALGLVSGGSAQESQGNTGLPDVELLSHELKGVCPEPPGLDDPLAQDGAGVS

COc1cc(C(C)=O)ccc1OCCCN1CCC(c2noc3cc(F)ccc23)CC1
Ki [1]: > 10 µM | Ki (Substance-P receptor): > 10 µM | Ki [2]: 9.33 µM | Ki (Adenosine receptor A1): > 10 µM | Ki (Adenosine receptor A2a): > 10 µM | Ki (Adenosine receptor A3): > 10 µM | Ki [3]: 0.0631 µM | Ki [4]: > 10 µM | Ki (Mu-type opioid receptor): > 10 µM | Ki [5]: 2.95 µM | Ki [6]: 1.48 µM | Ki [7]: 0.112 µM | Ki [8]: > 10 µM | Ki [9]: > 10 µM | Ki (Substance-K receptor): > 10 µM | Ki (Neuromedin-K receptor): > 10 µM | Ki [10]: > 10 µM | Ki [11]: 0.162 µM | Ki [12]: 0.0162 µM | Ki [13]: 3.31 µM | Ki [14]: 4.9 µM | Ki [15]: > 10 µM | Ki [16]: 8.32 µM | Ki [17]: > 10 µM | Ki (Cannabinoid receptor 1): > 10 µM | Ki [18]: > 10 µM | Ki [19]: 0.162 µM
